Results as given in paper PMC8286840, “Identifying SARS-CoV-2 antiviral compounds by screening for small molecule inhibitors of Nsp3 papain-like protease” (Biochemical Journal, 2021).
Counter-ions that a name gives are not always drawn. Like-named read-outs stand apart in the source and are kept apart here.

What was measured:
[1] = target: T1, SARS-CoV-2 PLpro (nsp3 1564–1878) (Severe acute respiratory syndrome coronavirus 2, UniProt P0DTD1); assay: biochemical; design: FRET-quenched peptide (Pro3) cleavage by PLpro, 10 min pre-incubation, slope over 20 min, normalised to no-compound control; conditions: low concentration screen, read-out: % of control remaining
[2] = target: T1, SARS-CoV-2 PLpro (nsp3 1564–1878); assay: biochemical; design: FRET-quenched peptide (Pro3) cleavage by PLpro, 10 min pre-incubation, slope over 20 min, normalised to no-compound control; conditions: high concentration screen, read-out: % of control remaining

For `COc1nccc(-c2c(-c3ccc(F)cc3)ncn2[C@H]2CC[C@H](O)CC2)n1` [SB 239063 - trans-4-[4-(4-Fluorophenyl)-5-(2-methoxy-4-pyrimidinyl)-1H-imidazol-1-yl]cyclohexanol], the remaining activity at 1.25 µM ([1]; Well no.=2478) was 98.8% and the remaining activity at 3.75 µM ([2]; Well no.=2478) was 98.4%.

In the case of `O=C1c2ccccc2C(=O)c2c1ccc(O)c2O` [Alizarin], the remaining activity at 1.25 µM ([1]; Well no.=5284) is reported as 94.6% and the remaining activity at 3.75 µM ([2]; Well no.=5284) is reported as 95.1%.

Compound `Oc1cc(O)c2c(c1)O[C@H](c1cc(O)c(O)c(O)c1)[C@H](O)C2` [Epigallocatechin] has a remaining activity at 1.25 µM ([1]; Well no.=3277) of 102% and a remaining activity at 3.75 µM ([2]; Well no.=3277) of 101%.

`COC(=O)C1=C(C)NC(C)=C(C(=O)OCCN(C)Cc2ccccc2)C1c1cccc([N+](=O)[O-])c1` (stereo not drawn) [Nicardipine.HCl] gave a remaining activity at 1.25 µM ([1]; Well no.=1593) of 104% and a remaining activity at 3.75 µM ([2]; Well no.=1593) of 104%.

`Nc1nc2c(ncn2COCCO)c(=O)[nH]1` [Acycloguanosine] gave a remaining activity at 1.25 µM ([1]; Well no.=2073) of 103% and a remaining activity at 3.75 µM ([2]; Well no.=2073) of 106%.

`Ic1ccccc1CN[C@@H]1C2CCN(CC2)[C@@H]1C(c1ccccc1)c1ccccc1` [L-703,606 oxalate] was tested, and the remaining activity at 1.25 µM ([1]; Well no.=964) was 96.7% and the remaining activity at 3.75 µM ([2]; Well no.=964) was 96%.

With `CCCCC/C=C/C/C=C/C/C=C/C/C=C/CCCCCC(=O)O` [Adrenic acid (22:4 n-6)] the remaining activity at 1.25 µM ([1]; Well no.=4253) was 105% and the remaining activity at 3.75 µM ([2]; Well no.=4253) was 98.5%.

Work on `Cn1cc(/C=C/C(=O)c2cccc(F)c2)cc1/C=C/C(=O)NO` [MC1568] yielded a remaining activity at 1.25 µM ([1]; Well no.=4905) of 102% and a remaining activity at 3.75 µM ([2]; Well no.=4905) of 101%.

`CCCN1CCc2cccc3c2[C@H]1Cc1ccc(O)c(O)c1-3` [R(-)-Propylnorapomorphine hydrochloride] showed a remaining activity at 1.25 µM ([1]; Well no.=540) of 104% and a remaining activity at 3.75 µM ([2]; Well no.=540) of 108%.

With `CS(=O)(=O)Nc1ccc([N+](=O)[O-])cc1Oc1ccccc1` [Nimesulide] the remaining activity at 1.25 µM ([1]; Well no.=1043) was 93.4%, the remaining activity at 1.25 µM ([1]; Well no.=1574) was 95.5% and the remaining activity at 3.75 µM ([2]; Well no.=1043) was 96.1%. The remaining activity at 3.75 µM ([2]; Well no.=1574) was 94.3%.

`O=S(=O)(Nc1ccc(C(O)(C(F)(F)F)C(F)(F)F)cc1)c1cccs1` [SR3335] showed a remaining activity at 1.25 µM ([1]; Well no.=8457) of 110% and a remaining activity at 3.75 µM ([2]; Well no.=8457) of 107%.

`CC1(C)S[C@@H]2[C@H](NC(=O)[C@H](NC(=O)N3CCNC3=O)c3ccccc3)C(=O)N2[C@H]1C(=O)O` [Azlocillin (sodium salt)] gave a remaining activity at 1.25 µM ([1]; Well no.=7454) of 94.9% and a remaining activity at 3.75 µM ([2]; Well no.=7454) of 101%.

`Cc1[nH]c2ccccc2c1CCNCc1ccc(/C=C/C(=O)NO)cc1` [Panobinostat (LBH589)] was tested, and the remaining activity at 1.25 µM ([1]; Well no.=4832) was 94.6% and the remaining activity at 3.75 µM ([2]; Well no.=4832) was 96.4%.

With `OC[C@H]1O[C@@H](n2cnc3c(N[C@H]4CCC[C@@H]4O)ncnc32)[C@H](O)[C@@H]1O` [GR79236] the remaining activity at 1.25 µM ([1]; Well no.=7817) was 105%, the remaining activity at 1.25 µM ([1]; Well no.=7852) was 94.1% and the remaining activity at 1.25 µM ([1]; Well no.=8455) was 108%. For the same compound, the remaining activity at 3.75 µM ([2]; Well no.=7817) was 105%, the remaining activity at 3.75 µM ([2]; Well no.=7852) was 93.8% and the remaining activity at 3.75 µM ([2]; Well no.=8455) was 110%.

For `CC(N)Cc1c[nH]c2ccc(O)cc12` (stereo not drawn) [alpha-Methyl-5-hydroxytryptamine maleate], the remaining activity at 1.25 µM ([1]; Well no.=895) was 106% and the remaining activity at 3.75 µM ([2]; Well no.=895) was 106%.

`CC[C@@H](C)[C@@H](O)[C@H](C)C(=O)[C@H](C)/C=C(\C)C[C@H](C)[C@@H]1OC(=O)[C@H]1CC` [Ebelactone B] showed a remaining activity at 1.25 µM ([1]; Well no.=3269) of 103% and a remaining activity at 3.75 µM ([2]; Well no.=3269) of 104%.

Compound `CNC(=O)c1c(F)cccc1Nc1nc(Nc2cc3c(ccn3C(=O)CN(C)C)cc2OC)nc2[nH]ccc12` [GSK1838705A] has a remaining activity at 1.25 µM ([1]; Well no.=5310) of 98% and a remaining activity at 3.75 µM ([2]; Well no.=5310) of 92%.

`COc1cc(C=CC(=O)O)cc(OC)c1O` (stereo in doubt) [Sinapinic acid] showed a remaining activity at 1.25 µM ([1]; Well no.=6150) of 102% and a remaining activity at 3.75 µM ([2]; Well no.=6150) of 102%.

For `FC(F)(F)c1cccc(C2=CCN(CCc3ccc4ccccc4c3)CC2)c1` [Xaliproden hydrochloride], the remaining activity at 1.25 µM ([1]; Well no.=5767) was 106% and the remaining activity at 3.75 µM ([2]; Well no.=5767) was 105%.

`Nc1nc(Cl)nc2c1ncn2[C@@H]1O[C@H](CO)[C@@H](O)[C@H]1O` [2-Chloroadenosine] showed a remaining activity at 1.25 µM ([1]; Well no.=274) of 99.4% and a remaining activity at 3.75 µM ([2]; Well no.=274) of 101%.

`CO[C@H]1C[C@@H]2CC[C@@H](C)[C@@](O)(O2)C(=O)C(=O)N2CCCC[C@H]2C(=O)O[C@H]([C@H](C)C[C@@H]2CC[C@@H](OC(=O)C(C)(CO)CO)[C@H](OC)C2)CC(=O)[C@H](C)/C=C(\C)[C@@H](O)[C@@H](OC)C(=O)[C@H](C)C[C@H](C)/C=C/C=C/C=C/1C` [Temsirolimus] gave a remaining activity at 1.25 µM ([1]; Well no.=8412) of 95.2% and a remaining activity at 3.75 µM ([2]; Well no.=8412) of 91.8%.

With `CCc1c(C(=O)NCCc2ccc(N3CCCCC3)cc2)[nH]c2ccc(Cl)cc12` [Org 27569] the remaining activity at 1.25 µM ([1]; Well no.=6238) was 103% and the remaining activity at 3.75 µM ([2]; Well no.=6238) was 105%.

In the case of `O=S1(=O)CCN(CN2CCS(=O)(=O)NC2)CN1` [Taurolidine], the remaining activity at 1.25 µM ([1]; Well no.=5628) is reported as 103% and the remaining activity at 3.75 µM ([2]; Well no.=5628) is reported as 109%.

Work on `CCc1ccc(CCOc2ccc(CC3SC(=O)NC3=O)cc2)nc1` (stereo not drawn) [Pioglitazone] yielded a remaining activity at 1.25 µM ([1]; Well no.=1718) of 98.7% and a remaining activity at 3.75 µM ([2]; Well no.=1718) of 98%.

Work on `COc1ccc(C(=O)c2c(C)n(CCN3CCOCC3)c3cc(I)ccc23)cc1` [AM630] yielded a remaining activity at 1.25 µM ([1]; Well no.=5463) of 103%, a remaining activity at 1.25 µM ([1]; Well no.=7903) of 98.5% and a remaining activity at 3.75 µM ([2]; Well no.=5463) of 107%. For the same compound, the remaining activity at 3.75 µM ([2]; Well no.=7903) was 106%.

`CC(C)c1cc(C(=O)N2Cc3ccc(CN4CCN(C)CC4)cc3C2)c(O)cc1O` [AT13387] gave a remaining activity at 1.25 µM ([1]; Well no.=5061) of 95% and a remaining activity at 3.75 µM ([2]; Well no.=5061) of 99.9%.

`Cc1scc2c1N(C(=O)CN1CCN(C)CC1)c1ccccc1NC2=O` [Telenzepine dihydrochloride] showed a remaining activity at 1.25 µM ([1]; Well no.=1186) of 95.7% and a remaining activity at 3.75 µM ([2]; Well no.=1186) of 97.7%.

`COc1cc(CC(=O)O)ccc1O` [4-Hydroxy-3-methoxyphenylacetic acid] showed a remaining activity at 1.25 µM ([1]; Well no.=750) of 99.7% and a remaining activity at 3.75 µM ([2]; Well no.=750) of 97.2%.

`c1ccc2c(CCNc3ccc(Nc4ccncc4)cc3)c[nH]c2c1` [Serdemetan] gave a remaining activity at 1.25 µM ([1]; Well no.=6730) of 97.7% and a remaining activity at 3.75 µM ([2]; Well no.=6730) of 101%.

Work on `O=C(CCN1CCN(C(=O)OCc2cc(Cl)cc(Cl)c2)CC1)c1ccc2[nH]c(=O)oc2c1` [PF-8380] yielded a remaining activity at 1.25 µM ([1]; Well no.=7798) of 104% and a remaining activity at 3.75 µM ([2]; Well no.=7798) of 98.3%.

Work on `CCOC(=O)Oc1c(OC)cc(C(=O)O[C@@H]2C[C@@H]3CN4CCc5c([nH]c6cc(OC)ccc56)[C@H]4C[C@@H]3[C@H](C(=O)OC)[C@H]2OC)cc1OC` [Syrosingopine] yielded a remaining activity at 1.25 µM ([1]; Well no.=3310) of 100% and a remaining activity at 3.75 µM ([2]; Well no.=3310) of 98.6%.

With `CCCCCCCCCCC(=O)O` [Undecanoic acid] the remaining activity at 1.25 µM ([1]; Well no.=4252) was 95.5% and the remaining activity at 3.75 µM ([2]; Well no.=4252) was 91.9%.
